ChEMBL document CHEMBL3046822, “Synthesis, antiplatelet aggregation activity, and molecular modeling study of novel substituted-piperazine analogues” (2011)
The source made the active and inactive calls. No cut-off for these calls is given here.

Tests used:
[1] = Antiaggregating activity in Homo sapiens (human) platelet rich plasma assessed as ADP-induced platelet aggregation at 10 uM incubated for 4 min prior to ADP-induction measured for 5.5 min by turbidometric analysis (reference value: 54 to 88%); format: functional
[2] = Antiaggregating activity in Homo sapiens (human) platelet rich plasma assessed as arachidonic acid-induced platelet aggregation at 1 uM incubated for 4 min prior to arachidonic acid-induction measured for 5.5 min by turbidometric analysis (reference value: 55 to 100%); format: functional
[3] = Antiaggregating activity in Homo sapiens (human) platelet rich plasma assessed as adrenaline-induced platelet aggregation at 1 uM incubated for 4 min prior to adrenaline-induction measured for 5.5 min by turbidometric analysis (reference value: 65 to 100%); format: functional
[4] = Antiaggregating activity in Homo sapiens (human) platelet rich plasma assessed as ristocetin-induced platelet aggregation at 1 uM incubated for 4 min prior to ristocetin-induction measured for 5.5 min by turbidometric analysis (reference value: 65 to 99%); format: functional
Platelet [5] = test: Antiaggregating activity in Homo sapiens (human) platelet rich plasma assessed as inhibition of ADP-induced platelet aggregation at 50 uM incubated for 4 min prior to ADP-induction measured for 5.5 min by turbidometric analysis; format: functional, cell-free
[6] = Antiaggregating activity in Homo sapiens (human) platelet rich plasma assessed as ristocetin-induced platelet aggregation at 10 uM incubated for 4 min prior to ristocetin-induction measured for 5.5 min by turbidometric analysis (reference value: 65 to 99%); format: functional
Platelet [7] = test: Antiaggregating activity in Homo sapiens (human) platelet rich plasma assessed as inhibition of arachidonic acid-induced platelet aggregation at 50 uM incubated for 4 min prior to arachidonic acid-induction measured for 5.5 min by turbidometric analysis; format: functional, cell-free
[8] = Antiaggregating activity in Homo sapiens (human) platelet rich plasma assessed as adrenaline-induced platelet aggregation at 10 uM incubated for 4 min prior to adrenaline-induction measured for 5.5 min by turbidometric analysis (reference value: 65 to 100%); format: functional
Platelet [9] = test: Antiaggregating activity in Homo sapiens (human) platelet rich plasma assessed as inhibition of adrenaline-induced platelet aggregation at 50 uM incubated for 4 min prior to adrenaline-induction measured for 5.5 min by turbidometric analysis; format: functional, cell-free
[10] = Antiaggregating activity in Homo sapiens (human) platelet rich plasma assessed as collagen-induced platelet aggregation at 1 uM incubated for 4 min prior to collagen-induction measured for 5.5 min by turbidometric analysis (reference value: 50 to 98%); format: functional
[11] = Antiaggregating activity in Homo sapiens (human) platelet rich plasma assessed as arachidonic acid-induced platelet aggregation at 10 uM incubated for 4 min prior to arachidonic acid-induction measured for 5.5 min by turbidometric analysis (reference value: 55 to 100%); format: functional
[12] = Antiaggregating activity in Homo sapiens (human) platelet rich plasma assessed as ADP-induced platelet aggregation at 1 uM incubated for 4 min prior to ADP-induction measured for 5.5 min by turbidometric analysis (reference value: 54 to 88%); format: functional
Platelet [13] = test: Antiaggregating activity in Homo sapiens (human) platelet rich plasma assessed as inhibition of collagen-induced platelet aggregation at 50 uM incubated for 4 min prior to collagen-induction measured for 5.5 min by turbidometric analysis; format: functional, cell-free
[14] = Antiaggregating activity in Homo sapiens (human) platelet rich plasma assessed as collagen-induced platelet aggregation at 10 uM incubated for 4 min prior to collagen-induction measured for 5.5 min by turbidometric analysis (reference value: 50 to 98%); format: functional
[15] = Antiaggregating activity in Homo sapiens (human) platelet rich plasma assessed as ristocetin-induced platelet aggregation at 50 uM incubated for 4 min prior to ristocetin-induction measured for 5.5 min by turbidometric analysis (reference value: 65 to 99%); format: functional
[16] = Antiaggregating activity in Homo sapiens (human) platelet rich plasma assessed as collagen-induced platelet aggregation at 2 uM incubated for 4 min prior to collagen-induction measured for 5.5 min by turbidometric analysis (reference value: 50 to 98%); format: functional
[17] = Antiaggregating activity in Homo sapiens (human) platelet rich plasma assessed as ristocetin-induced platelet aggregation at 5 uM incubated for 4 min prior to ristocetin-induction measured for 5.5 min by turbidometric analysis (reference value: 65 to 99%); format: functional
[18] = Antiaggregating activity in Homo sapiens (human) platelet rich plasma assessed as ristocetin-induced platelet aggregation at 2 uM incubated for 4 min prior to ristocetin-induction measured for 5.5 min by turbidometric analysis (reference value: 65 to 99%); format: functional
[19] = Antiaggregating activity in Homo sapiens (human) platelet rich plasma assessed as ADP-induced platelet aggregation at 2 uM incubated for 4 min prior to ADP-induction measured for 5.5 min by turbidometric analysis (reference value: 54 to 88%); format: functional
Platelet [20] = test: Antiaggregating activity in Homo sapiens (human) platelet rich plasma assessed as inhibition of collagen-induced platelet aggregation at 5 uM incubated for 4 min prior to collagen-induction measured for 5.5 min by turbidometric analysis; format: functional, cell-free
[21] = Antiaggregating activity in Homo sapiens (human) platelet rich plasma assessed as disaggregation of arachidonic acid-induced platelet aggregation at 2 uM incubated for 4 min prior to arachidonic acid-induction measured for 5.5 min by turbidometric analysis relative to control; format: functional
Platelet [22] = test: Antiaggregating activity in Homo sapiens (human) platelet rich plasma assessed as inhibition of arachidonic acid-induced platelet aggregation at 5 uM incubated for 4 min prior to arachidonic acid-induction measured for 5.5 min by turbidometric analysis; format: functional, cell-free
[23] = Antiaggregating activity in Homo sapiens (human) platelet rich plasma assessed as adrenaline-induced platelet aggregation at 2 uM incubated for 4 min prior to adrenaline-induction measured for 5.5 min by turbidometric analysis (reference value: 65 to 100%); format: functional
[24] = Antiaggregating activity in Homo sapiens (human) platelet rich plasma assessed as disaggregation of ADP-induced platelet aggregation at 5 uM incubated for 4 min prior to ADP-induction measured for 5.5 min by turbidometric analysis relative to control; format: functional
Platelet [25] = test: Antiaggregating activity in Homo sapiens (human) platelet rich plasma assessed as inhibition of adrenaline-induced platelet aggregation at 5 uM incubated for 4 min prior to adrenaline-induction measured for 5.5 min by turbidometric analysis; format: functional, cell-free
[26] = Antiaggregating activity in Homo sapiens (human) platelet rich plasma assessed as ristocetin-induced platelet aggregation at 0.1 uM incubated for 4 min prior to ristocetin-induction measured for 5.5 min by turbidometric analysis (reference value: 65 to 99%); format: functional
Platelet [27] = test: Antiaggregating activity in Homo sapiens (human) platelet rich plasma assessed as inhibition of adrenaline-induced platelet aggregation at 0.5 uM incubated for 4 min prior to adrenaline-induction measured for 5.5 min by turbidometric analysis; format: functional, cell-free
Platelet [28] = test: Antiaggregating activity in Homo sapiens (human) platelet rich plasma assessed as inhibition of collagen-induced platelet aggregation at 1 uM incubated for 4 min prior to collagen-induction measured for 5.5 min by turbidometric analysis; format: functional, cell-free
Platelet [29] = test: Antiaggregating activity in Homo sapiens (human) platelet rich plasma assessed as inhibition of adrenaline-induced platelet aggregation at 0.1 uM incubated for 4 min prior to adrenaline-induction measured for 5.5 min by turbidometric analysis; format: functional, cell-free
[30] = Antiaggregating activity in Homo sapiens (human) platelet rich plasma assessed as ristocetin-induced platelet aggregation at 0.8 uM incubated for 4 min prior to ristocetin-induction measured for 5.5 min by turbidometric analysis (reference value: 65 to 99%); format: functional
[31] = Antiaggregating activity in Homo sapiens (human) platelet rich plasma assessed as ADP-induced platelet aggregation at 0.1 uM incubated for 4 min prior to ADP-induction measured for 5.5 min by turbidometric analysis (reference value: 54 to 88%); format: functional
Platelet [32] = test: Antiaggregating activity in Homo sapiens (human) platelet rich plasma assessed as inhibition of arachidonic acid-induced platelet aggregation at 0.8 uM incubated for 4 min prior to arachidonic acid-induction measured for 5.5 min by turbidometric analysis; format: functional, cell-free
[33] = Antiaggregating activity in Homo sapiens (human) platelet rich plasma assessed as collagen-induced platelet aggregation at 0.1 uM incubated for 4 min prior to collagen-induction measured for 5.5 min by turbidometric analysis (reference value: 50 to 98%); format: functional
Platelet [34] = test: Antiaggregating activity in Homo sapiens (human) platelet rich plasma assessed as inhibition of ristocetin-induced platelet aggregation at 2 uM incubated for 4 min prior to ristocetin-induction measured for 5.5 min by turbidometric analysis; format: functional, cell-free
Platelet [35] = test: Antiaggregating activity in Homo sapiens (human) platelet rich plasma assessed as inhibition of arachidonic acid-induced platelet aggregation at 1 uM incubated for 4 min prior to arachidonic acid-induction measured for 5.5 min by turbidometric analysis; format: functional, cell-free
[36] = Antiaggregating activity in Homo sapiens (human) platelet rich plasma assessed as arachidonic acid-induced platelet aggregation at 0.1 uM incubated for 4 min prior to arachidonic acid-induction measured for 5.5 min by turbidometric analysis (reference value: 55 to 100%); format: functional
[37] = Antiaggregating activity in Homo sapiens (human) platelet rich plasma assessed as collagen-induced platelet aggregation at 0.5 uM incubated for 4 min prior to collagen-induction measured for 5.5 min by turbidometric analysis (reference value: 50 to 98%); format: functional
Platelet [38] = test: Antiaggregating activity in Homo sapiens (human) platelet rich plasma assessed as inhibition of ADP-induced platelet aggregation at 2 uM incubated for 4 min prior to ADP-induction measured for 5.5 min by turbidometric analysis; format: functional, cell-free
Platelet [39] = test: Antiaggregating activity in Homo sapiens (human) platelet rich plasma assessed as inhibition of ADP-induced platelet aggregation at 0.8 uM incubated for 4 min prior to ADP-induction measured for 5.5 min by turbidometric analysis; format: functional, cell-free
[40] = Antiaggregating activity in Homo sapiens (human) platelet rich plasma assessed as arachidonic acid-induced platelet aggregation at 0.5 uM incubated for 4 min prior to arachidonic acid-induction measured for 5.5 min by turbidometric analysis (reference value: 55 to 100%); format: functional
[41] = Antiaggregating activity in Homo sapiens (human) platelet rich plasma assessed as ADP-induced platelet aggregation at 0.5 uM incubated for 4 min prior to ADP-induction measured for 5.5 min by turbidometric analysis (reference value: 54 to 88%); format: functional
Platelet [42] = test: Antiaggregating activity in Homo sapiens (human) platelet rich plasma assessed as inhibition of arachidonic acid-induced platelet aggregation at 2 uM incubated for 4 min prior to arachidonic acid-induction measured for 5.5 min by turbidometric analysis; format: functional, cell-free
Platelet [43] = test: Antiaggregating activity in Homo sapiens (human) platelet rich plasma assessed as inhibition of adrenaline-induced platelet aggregation at 1 uM incubated for 4 min prior to adrenaline-induction measured for 5.5 min by turbidometric analysis; format: functional, cell-free
Platelet [44] = test: Antiaggregating activity in Homo sapiens (human) platelet rich plasma assessed as inhibition of ADP-induced platelet aggregation at 1 uM incubated for 4 min prior to ADP-induction measured for 5.5 min by turbidometric analysis; format: functional, cell-free
Platelet [45] = test: Antiaggregating activity in Homo sapiens (human) platelet rich plasma assessed as inhibition of collagen-induced platelet aggregation at 0.8 uM incubated for 4 min prior to collagen-induction measured for 5.5 min by turbidometric analysis; format: functional, cell-free
Platelet [46] = test: Antiaggregating activity in Homo sapiens (human) platelet rich plasma assessed as inhibition of adrenaline-induced platelet aggregation at 0.8 uM incubated for 4 min prior to adrenaline-induction measured for 5.5 min by turbidometric analysis; format: functional, cell-free
Platelet [47] = test: Antiaggregating activity in Homo sapiens (human) platelet rich plasma assessed as inhibition of collagen-induced platelet aggregation at 2 uM incubated for 4 min prior to collagen-induction measured for 5.5 min by turbidometric analysis; format: functional, cell-free
[48] = Antiaggregating activity in Homo sapiens (human) platelet rich plasma assessed as ristocetin-induced platelet aggregation at 0.5 uM incubated for 4 min prior to ristocetin-induction measured for 5.5 min by turbidometric analysis (reference value: 65 to 99%); format: functional
Platelet [49] = test: Antiaggregating activity in Homo sapiens (human) platelet rich plasma assessed as inhibition of adrenaline-induced platelet aggregation at 2 uM incubated for 4 min prior to adrenaline-induction measured for 5.5 min by turbidometric analysis; format: functional, cell-free

O=C(c1ccc[n+](Cc2ccc(C[n+]3cccc(C(=O)N4CCN(c5ncccn5)CC4)c3)cc2)c1)N1CCN(c2ncccn2)CC1.[Br-].[Br-]
Activity [1]: 71% | Activity [2]: 70% | Activity [3]: 73% | Activity [4]: 78% | inhibition (Platelet [5]): Active | Activity [6]: 82% | inhibition (Platelet [7]): Active | Activity [8]: 28% | inhibition (Platelet [9]): Active | Activity [10]: 73% | Activity [11]: 71% | Activity [12]: 70% | inhibition (Platelet [13]): Active | Activity [14]: 82% | Activity [15]: 73%

O=C(c1ccc[n+](Cc2ccc(C[n+]3cccc(C(=O)N4CCN(c5ccccc5Cl)CC4)c3)cc2)c1)N1CCN(c2ccccc2Cl)CC1.[Br-].[Br-]
Activity [16]: 26% | Activity [17]: 51% | Activity [2]: 40% | Activity [18]: 65% | Activity [19]: 79% | Activity [3]: 22% | Activity [4]: 78% | inhibition (Platelet [20]): Active | Activity [10]: 84% | Activity [12]: 91% | Activity [21]: 16% | inhibition (Platelet [22]): Active | Activity [23]: 21% | Activity [24]: 13% | inhibition (Platelet [25]): Active

COc1cc(C(=O)N2CCCC(C(=O)N3CCN(c4ncccn4)CC3)C2)cc(OC)c1OC.Cl (stereo not given)
Activity [26]: 77% | inhibition (Platelet [27]): Active | inhibition (Platelet [28]): Active | inhibition (Platelet [29]): Active | Activity [30]: 55% | Activity [31]: 72% | inhibition (Platelet [32]): Active | Activity [33]: 67% | inhibition (Platelet [34]): Active | inhibition (Platelet [35]): Active | Activity [36]: 76% | Activity [4]: 75% | Activity [37]: 78% | inhibition (Platelet [38]): Active | inhibition (Platelet [39]): Active | Activity [40]: 54% | Activity [41]: 50% | inhibition (Platelet [42]): Active | inhibition (Platelet [43]): Active | inhibition (Platelet [44]): Active | inhibition (Platelet [45]): Active | inhibition (Platelet [46]): Active | inhibition (Platelet [47]): Active | Activity [48]: 68% | inhibition (Platelet [49]): Active
